Results as given in ChEMBL document CHEMBL5053556, “Design, Synthesis, and Biological Evaluation of a Novel Series of Teriflunomide Derivatives as Potent Human Dihydroorotate Dehydrogenase Inhibitors for Malignancy Treatment” (J Med Chem, 2021).

Legend:
[1] = Clearance in Sprague-Dawley rat at 15 mg/kg, po measured after 48 hrs by LC-MS analysis; assay type: ADME, organism-based; details: in vivo
[2] = Acute toxicity in BALB/c mouse assessed as effect on heart at 400 mg/kg, po measured on day 14 by H and E staining based assay; assay type: organism-based; details: in vivo, 336 h, time 14 day
[3] = Acute toxicity in BALB/c mouse assessed as effect on spleen at 400 mg/kg, po measured on day 14 by H and E staining based assay; assay type: organism-based; details: in vivo, 336 h, time 14 day
[4] = target: Dihydroorotate dehydrogenase (quinone), mitochondrial (Homo sapiens, UniProt Q02127)
Dihydroorotate dehydrogenase (quinone), mitochondrial, sequence (Q02127 whole entry): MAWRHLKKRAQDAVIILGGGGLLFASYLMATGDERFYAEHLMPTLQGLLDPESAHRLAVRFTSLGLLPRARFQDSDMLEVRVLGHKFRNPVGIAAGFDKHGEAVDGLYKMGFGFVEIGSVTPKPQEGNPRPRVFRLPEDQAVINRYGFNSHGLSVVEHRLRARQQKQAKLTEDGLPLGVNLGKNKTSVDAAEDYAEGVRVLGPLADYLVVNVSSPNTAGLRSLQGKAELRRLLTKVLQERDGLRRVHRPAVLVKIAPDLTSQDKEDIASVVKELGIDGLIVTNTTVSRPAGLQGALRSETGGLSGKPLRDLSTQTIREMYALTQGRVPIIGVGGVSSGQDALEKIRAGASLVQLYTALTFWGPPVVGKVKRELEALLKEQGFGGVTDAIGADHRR
Description: Inhibition of human DHODH using dihydroorotate substrate preincubated for 30 mins followed by substrate addition by DCIP based microplate reader analysis

[5] = Acute toxicity in BALB/c mouse assessed change in behavior at 400 mg/kg, po; assay type: organism-based; details: in vivo
[6] = AUC(0 to t) in Sprague-Dawley rat at 15 mg/kg, po measured after 48 hrs by LC-MS analysis; assay type: ADME, organism-based; set-up: dose 15 mg/kg, time 48 hrs, route po; details: in vivo
[7] = system: SU-DHL-6; assay: Antiproliferative activity against human SU-DHL-6 cells assessed as cell growth inhibition incubated for 96 hrs by MTT assay; assay type: functional, cell-based; details: SU-DHL-6, 96 h
[8] = Clearance in Sprague-Dawley rat at 5 mg/kg, iv measured after 48 hrs by LC-MS analysis; assay type: ADME, organism-based; details: in vivo, iv, 5 mg/kg, 48 h
[9] = system: Raji; assay: Antiproliferative activity against human Raji cells assessed as cell growth inhibition at 0.4 uM incubated for 96 hrs by MTT assay; assay type: functional; set-up: scale not given: the % may be the effect or the level left
[10] = Oral bioavailability in Sprague-Dawley rat at 15 mg/kg measured after 48 hrs by LC-MS analysis; assay type: ADME, organism-based; details: in vivo
[11] = Drug distribution in NOD-SCID mouse lung at 40 mg/kg, po administered for 25 days by LC-MS analysis; assay type: ADME, organism-based; details: in vivo, 600 h, time 25 day
[12] = system: THP-1; assay: Antiproliferative activity against human THP-1 cells assessed as cell growth inhibition incubated for 96 hrs by MTT assay; assay type: functional, cell-based; details: THP-1, 96 h
[13] = system: Raji; assay: Antitumor activity against human Raji cells xenografted in NOD-SCID mouse assessed as tumor growth inhibition at 40 mg/kg, po administered for 25 days; assay type: functional; details: 600 h, time 25 day, read-out: TGI

## C/C(O)=C(\C#N)C(=O)Nc1cc(O[C@@H](C)C(F)(F)F)c(C(=O)Nc2c(F)cccc2F)cc1F
[1]
  CL/F: 10 mL/min/kg
[2]
  Activity: Non-Toxic
[3]
  Activity: Non-Toxic
[4]
  IC50: 16 nM
[5]
  Activity: Non-Toxic
[6]
  AUC(0-t) at 48 h: 29500 ng·h/mL
[7]
  IC50: 20 nM
[8]
  CL: 10 mL/min/kg
[9]
  Activity: 64.5%
[10]
  bioavailability: 31.1%
[11]
  Drug uptake: Active
[12]
  IC50: 20 nM
[13]
  inhibition in vivo at 40 mg/kg: 83.6%
